Sequences and labels used below:
B1: 1:500 conjugate: NHS ester of 6-keto-PGF1α conjugated to cysteine-free mutant aequorin at 1:500 mole ratio aequorin:6-keto-PGF1α (conjugate)
chain: VKLTPDFDNPKWIGRHKHMFNFLDVNHNGRISLDEMVYKASDIVINNLGATPEQAKRHKDAVEAFFGGAGMKYGVETEWPEYIEGWKRLASEELKRYSKNQITLIRLWGDALFDIIDKDQNGAISLDEWKAYTKSDGIIQSSEDSEETFRVSDIDESGQLDVDEMTRQHLGFWYTMDPASEKLYGGAVP

For the first data set, the system named is anti-6-keto-PGF1α antibody. The data set can be described thus: Cross-reactivity of related prostaglandins in the 6-keto-PGF1α aequorin bioluminescent immunoassay. The following applies: calculated at 50% B/B0; cross reactant used in the dose response curve instead of 6-keto-PGF1α; assay buffer. It is filed as binding, sheep. The protocol: Dose-Response Curve: A dose-response curve was generated for 6-keto-PGF1α by simultaneously incubating 100 μL of 6-keto-PGF1α antibody (1:10,000 dilution), 50 μL of different concentrations of the serially diluted analyte, 6-keto-PGF1α, and 50 μL of 1×10^−10 M coelenterazine bound 6-keto-PGF1α-aequorin conjugate (1:500) on microtiter plates coated with the secondary antibody. The plate was incubated in dark at room temperature for two hours with shaking at 300 rpm. The plate was washed three times with the wash buffer to remove any unbound components. The light intensity was measured as described before.
Presence of various prostaglandins other than 6-keto-PGF1α in the blood can cause non-specific binding with the 6-keto-PGF1α antibody and interfere with the detection of 6-keto-PGF1α, giving extremely high values of 6-keto-PGF1α. Therefore, it becomes important to confirm that the amount of 6-keto-PGF1α obtained from our assay is only due to 6-keto-PGF1α and no other prostaglandin. The cross-reactivities of other prostaglandins similar in structure to 6-keto-PGF1α were determined by preparing standard solutions of the compounds in the assay buffer ranging from 100,000 to 100 pg/mL and using them in this assay for 6-keto-PGF1α. The measured 6-keto-PGF1α concentration at 50% B/B0 was then calculated. The percent cross-reactivities were calculated by comparison of measured cross-reactant concentration and the actual concentration (known amount) of the cross-reactant in the sample (Table 1). It must be noted that the prostaglandins occur at different times in the arachidonic acid pathway and in different concentrations. […] The assay can, therefore, be used to measure 6-keto-PGF1α directly from plasma.
Cross-reactivities of related prostaglandins were measured by using varying concentrations of 50 μL of the cross reactant in the dose response curve instead of 6-keto-PGF1α. The percent cross-reactivities were calculated at 50% B/B0.
As for `CCCCC[C@H](O)/C=C/[C@@H]1[C@@H](CC(=O)CCC(=O)O)[C@@H](O)C[C@H]1O` [2,3-dinor-6-keto-Prostaglandin F1, 2,3-dinor-6-keto-Prostaglandin F1α], the Percent cross-reactivity is reported as 10.1%.

Turning to `CCCCCC(=O)CCC1C(O)CC(O)C1CC(=O)CCCCC(=O)O` (stereo not shown) [6,15-diketo-13,14-dihydro-Prostaglandin F1], the Percent cross-reactivity is listed as 1.83%.

For the molecule `CCCCC[C@H](O)/C=C/[C@@H]1[C@@H](CC(=O)CCCCC(=O)O)[C@@H](O)C[C@H]1O` [6-keto-Prostaglandin F1, 6-keto-Prostaglandin F1α], the Percent cross-reactivity is 100%.

Take `CCCCCC(=O)CCC1C(O)CC(O)C1CCCCCCC(=O)O` (stereo not shown) [13,14-dihydroxy-15-keto-Prostaglandin F1]: the Percent cross-reactivity is 0.45%.

`CCCCC[C@H](O)/C=C/[C@H]1C(=O)C[C@H](O)[C@@H]1C/C=C\CCCC(=O)O` [Prostaglandin D2]: the Percent cross-reactivity is 7.75%.

Consider `CCCCC[C@H](O)/C=C/[C@H]1[C@H](O)CC(=O)[C@@H]1CCCCCCC(=O)O` [Prostaglandin E1], for which the Percent cross-reactivity was 6.75%.

On to `CCCCC[C@H](O)/C=C/[C@@H]1[C@@H](CCCCCCC(=O)O)[C@@H](O)C[C@H]1O` [Prostaglandin F1], for which the Percent cross-reactivity is recorded as 5.4%.

`CCCCC[C@H](O)/C=C/[C@@H]1[C@@H](C/C=C\CCCC(=O)O)[C@@H](O)C[C@H]1O` [Prostaglandin F2]: the Percent cross-reactivity is 3.41%.

The subject of a further data set is anti-6-keto-PGF1α antibody. The data set can be described thus: Binder dilution study of 6-keto-PGF1α-aequorin conjugates. The class given is binding, sheep. The following applies: 1×10^−10 M conjugate, 2 h room temperature, secondary antibody-coated plate; compared with 1:50 and 1:200 conjugates. The protocol:
For the binder dilution studies aliquots of 100 μL of different concentrations of serially diluted anti-6-keto-PGF1α antibody, produced in sheep and 50 μL of 1×10^−10 M 6-keto-PGF1α-aequorin conjugate were placed simultaneously in microtiter plates pre-coated with a secondary antibody, donkey anti-sheep IgG. All dilutions were done in the assay buffer. The plates were incubated in dark at room temperature for 2 h with shaking at 300 rpm. Then the plates were washed with wash buffer (30 mM Tris-HCL buffer, pH 7.0, containing 2 mM EDTA, 0.15 M NaCl, and 0.1% Tween 20) three times to remove any unbound primary antibody or any unbound conjugate. Finally, the light intensity was measured as described earlier for the calibration plot.
The next step was to study the interaction between the anti-6-keto-PGF1α antibody and the conjugates. […] After washing the plate to remove any unbound antibody or conjugate the luminescence was measured. […] The effect of increased or decreased amounts of 6-keto-PGF1α antibody and/or conjugate on the dose-response curve was also evaluated. […] The dose-response curve obtained for 6-keto-PGF1α as depicted in FIG. 3, is sigmoidal in shape, with the luminescence intensity being lower at high concentrations of 6-keto-PGF1α and increasing as the concentration of 6-keto-PGF1α decreases. […]
As for B1, the “binding to 6-keto-PGF1α antibody (binder-dilution curves)” value was “maximum binding”.

Test system in the next data set: not listed separately
The data set can be described thus: 6-keto-PGF1α in plasma of PPH patients on intravenous prostacyclin, measured directly without extraction. The following applies: PPH patient plasma samples. The class given is in vivo, human. The protocol:
The analysis of 6-keto-PGF1α directly in plasma without extraction was performed by diluting the samples 1:200 times and using 50 μL in the dose-response curve along with 100 μL 6-keto-PGF1α of antibody and 50 μL of 6-keto-PGF1α-aequorin conjugate. The analysis was performed in the same manner as the dose-response curve described before. The amount of 6-keto-PGF1α in the samples was calculated from the standard dose response curve generated in plasma. The appropriate dilution factor was taken into consideration when calculating the amount of 6-keto-PGF1α present in each sample.
For in vivo analysis plasma samples were obtained from five patients with severe pulmonary arterial hypertension and 7 normal controls. […] All patient samples were analyzed in the same manner as the dose response curve in plasma. […] The amount of 6-keto-PGF1α in the samples was calculated as described before for sample analysis without extraction. […]
In order to obtain recovery data further analysis of the samples was performed. Two of the normal plasma samples and two patient plasma samples were first analyzed using the assay without extraction. […] The amount of 6-keto-PGF1α in the samples was calculated as described before for sample analysis without extraction. The samples were analyzed in triplicates. […]
Take `CCCCC[C@H](O)/C=C/[C@@H]1[C@H]2C/C(=C/CCCC(=O)O)O[C@H]2C[C@H]1O` [Prostacyclin]: the “levels of 6-keto-PGF1α in plasma versus prostacyclin dose” value is “increased with increase in the prostacyclin dose”.

The values are drawn from patent US7659078B1, “Method and kit for determination of prostacyclin in plasma” (University of Kentucky Research Foundation, priority 2002, dated 2010).
